In US20220041627A1, “PRODRUGS OF ANTI-CANCER AND ANTI-AUTOIMMUNE DISEASES THERAPEUTIC AGENTS, AND METHODS OF MAKING AND USE THEREOF” (UNIVERSITY OF MARYLAND, BALTIMORE, priority 2018, published 2022):
Read-outs that look alike come from different tables or passages of the source.

Tests used:
SNB-75 = assay: NCI-60 growth inhibition, SNB-75; assay type: cell-based, human
From the text: (§1) The anticancer effects of compounds 1a-1b against 60 human cancer cell lines (the Developmental Therapeutics Program of NCI) were studied. The cell lines were derived from different cancer types including leukemia, non-small-cell lung cancer, colon cancer, CNS cancer, melanoma, ovarian cancer, renal cancer, prostate cancer, and breast cancer (Table 1; the assay protocol can be found at: https://dtp.cancer.gov/default.htm). Compound 1a caused over 50% growth inhibition for most tested cell lines. […] Without wishing to be bound by any particular theory, it is believed that the differences in the anticancer effects between compounds 1a and 1b may be due to the more favorable cell membrane permeability of the boronic ester 1a.

SF-268 = assay: NCI-60 growth inhibition, SF-268; assay type: cell-based, human
From the text: as §1

MCF7 = assay: NCI-60 growth inhibition, MCF7; assay type: cell-based, human
From the text: as §1

K-562 = assay: NCI-60 growth inhibition, K-562; assay type: cell-based, human
From the text: as §1

BT-549 = assay: NCI-60 growth inhibition, BT-549; assay type: cell-based, human
From the text: as §1

NCI-H522 = assay: NCI-60 growth inhibition, NCI-H522; assay type: cell-based, human
From the text: as §1

SW-620 = assay: NCI-60 growth inhibition, SW-620; assay type: cell-based, human
From the text: as §1

MDA-MB-468 = assay: NCI-60 growth inhibition, MDA-MB-468; assay type: cell-based, human
From the text: as §1

RXF 393 = assay: NCI-60 growth inhibition, RXF 393; assay type: cell-based, human
From the text: as §1

SK-OV-3 = assay: NCI-60 growth inhibition, SK-OV-3; assay type: cell-based, human
From the text: as §1

UO-31 = assay: NCI-60 growth inhibition, UO-31; assay type: cell-based, human
From the text: as §1

HCT-116 = assay: NCI-60 growth inhibition, HCT-116; assay type: cell-based, human
From the text: as §1

NCI-H23 = assay: NCI-60 growth inhibition, NCI-H23; assay type: cell-based, human
From the text: as §1

PC-3 = assay: NCI-60 growth inhibition, PC-3; assay type: cell-based, human
From the text: as §1

OVCAR-3 = assay: NCI-60 growth inhibition, OVCAR-3; assay type: cell-based, human
From the text: as §1

breast cancer MCF7 cells = assay: Cell viability (CCK8) in breast cancer MCF7 cells; assay type: cell-based, human; conditions: different concentrations, compared with parent drug 5-FU
Description: (§2) FIGS. 2A and 2B illustrate the anticancer effects and selectivity of 5-FU and compounds 1a-1c. Cell viability was analyzed after the breast cancer MCF7 cells (FIG. 2A) and normal MEC1 cells (FIG. 2B) were treated with 5-FU or compounds 1a-1c at different concentrations. Data are presented as mean±SD, n=4.
(§3) Cell Counting Kit-8 (CCK8, Dojingo) was used to carry out the cytotoxicity assessment of the prodrugs. Seeded cells were treated with varying compound concentrations for 48-72 h and the CCK8 kit was used to measure the cytotoxicity. For NAC experiments, this ROS scavenger was pre-incubated with the cells for 2 h and then co-incubated with the prodrugs for additional 48 hours unless otherwise noted.
(§4) The anticancer effects of new compounds 1a and 1b were tested using the breast cancer MCF7 cells and normal MEC1 cells (FIGS. 2A and 2B). […] These differential killing results highlight the specificity of new prodrugs 1a-1b for cancer cells over normal cells. […] To further verify the role of ROS in the drug release process, the MTT assays was performed, using MCF7 cells pretreated with the ROS scavenger N-Acetyl-Cysteine (NAC).

MOLT-4 = assay: NCI-60 growth inhibition, MOLT-4; assay type: cell-based, human
From the text: as §1

[1] = Cell viability (CCK8) in normal MEC1 cells; assay type: cell-based
Description: as §2, §3, §4

SR = assay: NCI-60 growth inhibition, SR; assay type: cell-based, human; conditions: Leukemia SR, 48 h
From the text: as §1

M14 = assay: NCI-60 growth inhibition, M14; assay type: cell-based, human
From the text: as §1

HT29 = assay: NCI-60 growth inhibition, HT29; assay type: cell-based, human
From the text: as §1

HS 578T = assay: NCI-60 growth inhibition, HS 578T; assay type: cell-based, human; conditions: Breast Cancer HS 578T, 48 h
From the text: as §1

[2] = system: 60 human cancer cell lines; assay: NCI-60 cellular antitumor activity profiling, panel summary; assay type: cell-based; conditions: 48 h; for inhibition at 50 µM: Homo sapiens
From the text: as §1

786-0 = assay: NCI-60 growth inhibition, 786-0; assay type: cell-based, human
From the text: as §1

A549/ATCC = assay: NCI-60 growth inhibition, A549/ATCC; assay type: cell-based, human; conditions: Non-Small Cell lung Cancer A549/ATCC, 48 h
From the text: as §1

LOX IMVI = assay: NCI-60 growth inhibition, LOX IMVI; assay type: cell-based, human; conditions: Melanoma LOX IMVI, 48 h
From the text: as §1

OVCAR-4 = assay: NCI-60 growth inhibition, OVCAR-4; assay type: cell-based, human
From the text: as §1

CC1(C)OB(c2ccc(Cn3cc(F)c(=O)[nH]c3=O)cc2)OC1(C)C [Compound 1a, 5-Fluoro-1-(4-(4,4,5,5-tetramethyl-1,3,2-dioxaborolan-2-yl)benzyl)pyrimidine-2,4(1H,3H)-dione]
inhibition at 50 µM (SNB-75; Homo sapiens, CNS Cancer SNB-75, 48 h): 62%
inhibition at 50 µM (SF-268; Homo sapiens, CNS Cancer SF-268, 48 h): 31%
inhibition at 50 µM (MCF7; Homo sapiens, Breast Cancer MCF7, 48 h): 81%
inhibition at 50 µM (K-562; Homo sapiens, K562, Leukemia K-562, 48 h): 70%
inhibition at 50 µM (BT-549; Homo sapiens, Breast Cancer BT-549, 48 h): 60%
inhibition at 50 µM (NCI-H522; Homo sapiens, Non-Small Cell lung Cancer NCI-H522, 48 h): 90%
inhibition at 50 µM (SW-620; Homo sapiens, Colon Cancer SW-620, 48 h): 66%
inhibition at 50 µM (MDA-MB-468; Homo sapiens, Breast Cancer MDA-MB-468, 48 h): 87%
inhibition at 50 µM (RXF 393; Homo sapiens, Renal Cancer RXF 393, 48 h): 40%
inhibition at 50 µM (SK-OV-3; Homo sapiens, Ovarian Cancer SK-OV-3, 48 h): 31%
inhibition at 50 µM (UO-31; Homo sapiens, Renal Cancer UO-31, 48 h): 27%
inhibition at 50 µM (HCT-116; Homo sapiens, Colon Cancer HCT-116, 48 h): 71%
inhibition at 50 µM (NCI-H23; Homo sapiens, Non-Small Cell lung Cancer NCI-H23, 48 h): 32%
inhibition at 50 µM (PC-3; Homo sapiens, Prostate Cancer PC-3, 48 h): 45%
inhibition at 50 µM (OVCAR-3; Homo sapiens, Ovarian Cancer OVCAR-3, 48 h): 95%
antiproliferative activity / anticancer effects (breast cancer MCF7 cells): comparable antiproliferative activity as that of the parent drug 5-FU
inhibition at 50 µM (MOLT-4; Homo sapiens, Leukemia MOLT-4, 48 h): 45%
viability at 100 µM [1]: > 95%
inhibition at 50 µM (SR; Homo sapiens): 60%
inhibition at 50 µM (M14; Homo sapiens, Melanoma M14, 48 h): 55%
inhibition at 50 µM (HT29; Homo sapiens, HT-29, Colon Cancer HT29, 48 h): 76%
inhibition at 50 µM (HS 578T; Homo sapiens): 63%
inhibition at 50 µM ([2]; lung cancer NCI-H522, melanoma MDA-MB-435, ovarian cancer OVCAR-3, breast cancer MCF7 and MDA-MB-468 cells, read-out: most significant inhibition): 81 to 96%
inhibition at 50 µM ([2]; most cell lines of the NCI-60 panel, read-out: growth inhibition for most tested cell lines): > 50%
inhibition at 50 µM (786-0; Homo sapiens, Renal Cancer 786-0, 48 h): 19%
inhibition at 50 µM (A549/ATCC; Homo sapiens): 24%
inhibition at 50 µM (LOX IMVI; Homo sapiens): 47%
inhibition at 50 µM (OVCAR-4; Homo sapiens, Ovarian Cancer OVCAR-4, 48 h): 30%

O=c1[nH]c(=O)n(Cc2ccc(B(O)O)cc2)cc1F [Compound 1b, (4-((5-Fluoro-2,4-dioxo-3,4-dihydropyrimidin-I(2H)-yl)methyl)phenyl)boronic acid]
Growth Inhibition (%) (SNB-75; CNS Cancer SNB-75, 50 μM, 48 h): 15%
Growth Inhibition (%) (SF-268; CNS Cancer SF-268, 50 μM, 48 h): 14%
Growth Inhibition (%) (MCF7; Breast Cancer MCF7, 50 μM, 48 h): 33%
Growth Inhibition (%) (K-562; Leukemia K-562, 50 μM, 48 h): 18%
Growth Inhibition (%) (BT-549; Breast Cancer BT-549, 50 μM, 48 h): 30%
Growth Inhibition (%) (NCI-H522; Non-Small Cell lung Cancer NCI-H522, 50 μM, 48 h): 44%
Growth Inhibition (%) (SW-620; Colon Cancer SW-620, 50 μM, 48 h): 17%
Growth Inhibition (%) (MDA-MB-468; Breast Cancer MDA-MB-468, 50 μM, 48 h): 22%
Growth Inhibition (%) (RXF 393; Renal Cancer RXF 393, 50 μM, 48 h): 17%
Growth Inhibition (%) (SK-OV-3; Ovarian Cancer SK-OV-3, 50 μM, 48 h): 13%
Growth Inhibition (%) (UO-31; Renal Cancer UO-31, 50 μM, 48 h): 27%
Growth Inhibition (%) (HCT-116; Colon Cancer HCT-116, 50 μM, 48 h): 18%
Growth Inhibition (%) (NCI-H23; Non-Small Cell lung Cancer NCI-H23, 50 μM, 48 h): 6%
Growth Inhibition (%) (PC-3; Prostate Cancer PC-3, 50 μM, 48 h): 14%
Growth Inhibition (%) (OVCAR-3; Ovarian Cancer OVCAR-3, 50 μM, 48 h): 30%
Growth Inhibition (%) (MOLT-4; Leukemia MOLT-4, 50 μM, 48 h): 5%
Growth Inhibition (%) (SR; 50 μM): 16%
Growth Inhibition (%) (M14; Melanoma M14, 50 μM, 48 h): 17%
Growth Inhibition (%) (HT29; Colon Cancer HT29, 50 μM, 48 h): 12%
Growth Inhibition (%) (HS 578T; 50 μM): 26%
growth inhibition for most tested cell lines ([2]; most cell lines of the NCI-60 panel, 50 μM): less than 50%
Growth Inhibition (%) (786-0; Renal Cancer 786-0, 50 μM, 48 h): 6%
Growth Inhibition (%) (A549/ATCC; 50 μM): 4%
Growth Inhibition (%) (LOX IMVI; 50 μM): 8%
Growth Inhibition (%) (OVCAR-4; Ovarian Cancer OVCAR-4, 50 μM, 48 h): 2%
